Values of other authors as cited in patent publication US5370873A, “Therapeutic compounds derived from the neem tree” (priority 1992, dated 1994).
Where two headings read alike, the source gives them in different places.

Assays:
[1] = system: murine P-388 lymphocytic leukemia cell line
[2] = in vivo
[3] = not given; remark: listed apart in the source

1,2-diapoxyazadiradione
ED50, murine P-388 lymphocytic leukemia cell line [1]: 8.5 mg

7-acetyl neotrichilenone
ED50, murine P-388 lymphocytic leukemia cell line [1]: 10 mg

C/C=C(\C)C(=O)O[C@H]1C[C@@H](OC(C)=O)[C@@]2(C(=O)OC)CO[C@H]3[C@@H](O)[C@@](C)([C@]45O[C@@]4(C)[C@H]4C[C@@H]5O[C@@H]5OC=C[C@@]54O)[C@H]4[C@]1(CO[C@]4(O)C(=O)OC)[C@@H]32 [azadiractin]
insect feeding repellency (insect): very potent insect feeding repellents

CC(=O)O[C@@H]1C[C@H]2C(C)(C)C(=O)C=C[C@]2(C)[C@H]2CC[C@@]3(C)[C@H](c4ccoc4)OC(=O)[C@H]4O[C@]43[C@@]21C [gedunin]
inhibition of development of Plasmodium falciparum in vitro (Plasmodium falciparum): inhibit the development of the human malarial parasite Plasmodium falciparum in vitro

Neem oil
local or systemic side effects in human subjects [2]: no local or systemic side effects
local or systemic side effects in human subjects ([2]; po): no local or systemic side effects

nimbidin
systemic toxicity in rats: failed to demonstrate any systemic toxicity
systemic toxicity in dogs [3]: failed to demonstrate any systemic toxicity
